The values below come from patent US20210363170A1, “4'-THIO-NUCLEOTIDE AND -NUCLEOSIDE PRODRUGS FOR THE TREATMENT OF CANCER” (Southern Research Institute, priority 2018, published 2021).

Read-outs that look alike come from different tables or passages of the source.

What all share (assay type): cell-based
The subject of one assay is DNMT-1. Description: Western blot analysis of DNMT-1 in CEM cells. The note with it: DNMT-1 depletion in CEM cells, 96 hours. How it is done:
Cells were treated with serial dilutions of each compound (starting 100 uM for HCT-116 and NCI-H23 cells, and 20 uM for KG-1a and CCRF-CEM cells) or with DMSO as control for 96 hours. Cell lysates were collected and proteins were separated with a SDS-PAGE gel, transferred to a nitrocellulose membrane, blocked in 5% non-fat milk in TBS-T, and probed with anti DNMT-1 (1:7000) rabbit polyclonal antibodies (cat #ab19905, Abcam) in 5% non-fat milk in TBS-T overnight. Membranes were washed three times with TBS-T. The anti-rabbit IgG (7074p2, Cell Signaling) secondary antibody was added at a concentration of 1:5000 in 5% non-fat milk in TBS-T for two hours in room temperature. Membranes were then washed three times with TBS-T, 5 minutes each time. Membranes were then incubated with SuperSignal West Pico Chemiluminescent Substrate (#34080 Thermo) and exposed onto film. Membranes were stripped with stripping buffer (#21059, Thermo) and re-probed with mouse anti tubulin 1:10,000 (T9026, Sigma) and anti-mouse IgG 1:5,000 (70′76p2, Cell Signaling).
(In general: Immunoblotting shows a protein as a band on a membrane.)

For assay [1], the system named is CEM cells. Description: Deoxycytidine kinase (dCK) activity: CEM cell viability with or without 2'-deoxycytidine. Particulars: for IC50: CEM cells, 72 hours. How it is done:
7.5×10^3 cells/well were plated in a 96 well plate in duplicate. […] Cells were cultured in the presence of compound for 72 hours. CellTiter Glo (G9241, Promega) was added to the media of each well and measured by a plate reader (Synergy 4, Biotek). The results were analyzed by GraphPad Prism 7 (GraphPad).

The test system of assay [2] is CEM cells. Description: Nucleoside transporter (hENT-1) activity: CEM cell viability with or without the hENT-1 inhibitor dipyridamole. The note with it: for IC50: CEM cells, 72 hours. Here is the method:
7.5×10^3 cells/well were plated in a 96 well plate in duplicate. Either compound 2 and Aza-T-dCyd were dosed at a 1:5 10-point serial dilution with a top dose of 5 μM in the presence of 5 μM Dipyridamole (DPD, Sigma Cat #: D9766 CAS 58-32-2), a hENT-1 inhibitor. Cells were cultured in the presence of compound for 72 hours. CellTiter Glo (G9241, Promega) was added to the media of each well and measured by a plate reader (Synergy 4, Biotek). The results were analyzed by GraphPad Prism 7 (GraphPad).

The subject of the next assay is KG-1a cells. As to the kind of experiment: Cell viability assay (CellTiter Glo, 72 hours) in KG-1a cells. Particulars: read-out: Cell Line IC50 (μM) KG-1a. How it is done:
(§1) KG1a (CCL-246.1, ATCC) and CCRF-CEM (CCL-199, ATCC) cells were grown in RPMI-1640 media containing 10% FBS in T-75 flasks to a density of 1×10^6 cells per mL. Exponentially gown cells were used for the assay. Day 1: 7.5×10^3 cells were seeded in each well of 96 well plate. Day 2: Cells were treated with serial dilutions of each compound (starting 20 uM) or with DMSO as control for 72 hours. Day 5: CellTiter Glo (G9241, Promega) was added to the media of each well and measured by plate reader (Synergy 4, Biotek). Data analysis: Using GraphPad Prism 7 (GraphPad).

The test system of the next assay is HCT-116 cells. Description: Cytidine deaminase (CDA) activity: HCT-116 cell viability with or without the CDA inhibitor tetrahydrouridine. Particulars: for IC50: HCT-116 cells, 72 hours. Here is the method: […] cells/well were plated in a 96 well plate in duplicate. Tetrahydrouridine (THU), a Cytidine Deaminase inhibitor was dosed at 1:5 10-point serial dilution, with a top dose of 100 μM, as a control. […] Cells were cultured in the presence of compound for 72 hours and then assayed by cell titer glow for viability.

The test system of the next assay is CCRF-CEM cells. As to the kind of experiment: Cell viability assay (CellTiter Glo, 72 hours) in CEM cells. Particulars: read-out: Cell Line IC50 (μM) CEM. Here is the method:
as §1
In general terms: Cellular ATP, detected with luciferase, serves as a proxy for viable cell number.

Consider “2-ethylbutyl ((S)-(((2R,3S,5R)-5-(4-amino-2-oxo-1,3,5-triazin-1(2H)-yl)-3-hydroxytetrahydrothiophen-2-yl)methoxy)(phenoxy)phosphoryl)-L-alaninate [Compound 3]”, for which the IC50 in the assay with DNMT-1 was determined as 620 nM; in the assay with CEM cells [1] (with 20 μM 2'-deoxycytidine (dCK inhibitor), read-out: CEM IC50 (μM) With dCyd (20 μM)), 6.5 µM; in the assay with CEM cells [1] (without 2'-deoxycytidine, read-out: CEM IC50 (μM) Without dCyd) it was 0.3 µM; with CEM cells [2] (with 5 μM dipyridamole (hENT-1 inhibitor), read-out: CEM IC50 (μM) With DPD (5 μM)), 3.1 µM; in the assay on CEM cells [2] (without dipyridamole, read-out: CEM IC50 (μM) Without DPD), 0.35 µM; in the assay with KG-1a cells, 1.5 µM. Further, the IC50 in the assay on HCT-116 cells (with 20 μM tetrahydrouridine (CDA inhibitor), read-out: HCT-116 IC50 (μM) With THU (20 μM)) amounted to 12 µM; with HCT-116 cells (without tetrahydrouridine, read-out: HCT-116 IC50 (μM) Without THU) it was 8 µM; in the assay with CCRF-CEM cells, 0.16 µM. Further, the “reliance on dCK activation compared to parent drug” value in the assay on CEM cells [1] (conclusion in words from Table 5) was “does not rely on dCK activation”. Moreover, in the assay with CEM cells [2] (conclusion in words from Table 3), the “reliance on hENT-1 to enter the cancer cells” value was “does not significantly rely on hENT-1”. In addition, in the assay with HCT-116 cells (conclusion in words from Table 4), the “overcoming cytidine deaminase compared to parent drug” value is reported as “did overcome CAD”.
With `Nc1ncn([C@H]2C[C@H](O)[C@@H](CO)S2)c(=O)n1` [Aza-T-dCyd, 5-aza-4′-Thio-2′-deoxycytidine, reference compound], the IC50 is 380 nM in the assay on DNMT-1; 19 µM in the assay with CEM cells [1] (Homo sapiens, CCRF-CEM, with 20 μM 2'-deoxycytidine (dCK inhibitor), read-out: CEM IC50 (μM) With dCyd (20 μM)); 0.03 µM in the assay with CEM cells [1] (Homo sapiens, CCRF-CEM, without 2'-deoxycytidine, read-out: CEM IC50 (μM) Without dCyd); greater than 3 µM in the assay on CEM cells [2] (Homo sapiens, CCRF-CEM, with 5 μM dipyridamole (hENT-1 inhibitor), read-out: CEM IC50 (μM) With DPD (5 μM)); 0.03 µM in the assay on CEM cells [2] (Homo sapiens, CCRF-CEM, without dipyridamole, read-out: CEM IC50 (μM) Without DPD); 0.03 µM with KG-1a cells (Homo sapiens). Also, the IC50 is 0.7 µM with HCT-116 cells (Homo sapiens, with 20 μM tetrahydrouridine (CDA inhibitor), read-out: HCT-116 IC50 (μM) With THU (20 μM)); 7 µM in the assay with HCT-116 cells (Homo sapiens, without tetrahydrouridine, read-out: HCT-116 IC50 (μM) Without THU); 0.03 µM in the assay on CCRF-CEM cells (Homo sapiens, CCRF-CEM).

Broadly, the IC50 is the concentration needed to halve the response being measured.
